Measured values reported in article PMC7381729, “A new class of PentixaFor- and PentixaTher-based theranostic agents with enhanced CXCR4-targeting efficiency” (Theranostics, 2020).
Like-named read-outs stand apart in the source and are kept apart here. Where a SMILES comes first, the peptide text is derived from it. Side-chain parts run from the residue outwards. [ ]: non-standard residue; d: D form. The star is where a group is joined. DOTA = O=C(O)CN1CCN(CC(=O)O)CCN(CC(=O)*)CCN(CC(=O)O)CC1; 2Nal = N[C@@H](Cc1ccc2ccccc2c1)C(=O)O; dNMeOrn = CN[C@H](CCCN)C(=O)O; 4Abz = Nc1ccc(C(=O)O)cc1

Tests used:
[1] = Small animal PET imaging in Daudi xenograft bearing mice; format: in vivo; conditions: CB17 SCID, mouse, iv, total radioactivity, 90 min p.i., dynamic PET, ROI analysis, n=1 per compound
Procedure: Small aminal PET imaging studies were performed using a Siemens Inveon PET scanner. Animals were anesthetized with isoflurane and injected via the tail vein with 10 to 15 MBq (0.1 nmol) of the respective tracer. Dynamic imaging (n=1 per compound) was performed after on-bed injection for 1.5 h, and static images (n=1 per compound) were acquired at 1 h p.i. with an acquisition time of 15 min. Data analysis was performed using the Inveon Research Workplace software. Images were reconstructed using a 3D ordered-subsets expectation maximum (OSEM3D) algorithm without scanner and attenuation correction. Time-activity curves (Figure 4) were obtained by generating isocontour regions of interest (ROI) for the tumor and the heart content (as a surrogate for blood activity), as well as by defining two spherical ROIs (each 23.4 mm^3) in the thigh area (muscle) and areas of homogenous tracer uptake in the liver, followed by plotting of average activity ± SD per volume in these ROIs over time.  Figure 4 Results from small animal PET imaging using [^68Ga]PentixaFor (top row), [^68Ga]DOTA-r-a-ABA-CPCR4 (middle row) and [^68Ga]DOTA-r-a-ABA-iodoCPCR4 (bottom row) in Daudi xenograft bearing CB17 SCID mice. Images on the left (MIP) were obtained by static imaging (1h p.i., n=1), the time activity curves (TAC) on the right were acquired by dynamic PET imaging (0-90 min p.i., n=1).

[2] = Biodistribution in Daudi xenograft bearing mice; format: in vivo, mouse; conditions: female, CB-17 SCID, mouse, iv, total radioactivity, 1h p.i., means ± SD
Procedure, shortened: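 Female CB-17 SCID mice with Daudi xenografts (n=4-5) received 5-10 MBq (0.08-0.11 nmol) ^68Ga- or ^177Lu-labelled ligand i.v.; blocking by coinjected 50 µg AMD3100. Organs counted by γ-counter at 1, 6 and 48 h p.i.; %ID/g (mean ± SD).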

tissue uptake per volume at 1.5 h ([1]; kidney, read-out: Kidney uptake in PET): 9.4 ± 0.2 %ID/mL
tissue uptake per volume at 1.5 h ([1]; liver, average ± SD per volume in ROI, read-out: Liver uptake in PET): 6 ± 0.2 %ID/mL
tissue uptake per volume at 1.5 h ([1]; tumor (Daudi xenograft), Daudi xenograft, read-out: Tumor accumulation in PET): 12 ± 0.7 %ID/mL
tissue uptake at 1 h ([2]; adrenals, tracer only, i.v., γ-counter, n=4-5 (68Ga: n=4), read-out: Biodistribution adrenals): 1.9 ± 1.14 %ID/g
tissue uptake at 1 h ([2]; adrenals, with AMD3100, 50 µg per animal, coinjected (CXCR4 competition), coinjection of 50 µg AMD3100/animal, n=3, read-out: Biodistribution adrenals, competition with AMD3100): 1.02 ± 0.27 %ID/g
tissue uptake at 1 h ([2]; blood, with AMD3100, 50 µg per animal, coinjected (CXCR4 competition), coinjection of 50 µg AMD3100/animal, n=3, read-out: Biodistribution blood, competition with AMD3100): 2.98 ± 0.57 %ID/g
tissue uptake at 1 h ([2]; colon, tracer only, i.v., γ-counter, n=4-5 (68Ga: n=4), read-out: Biodistribution colon): 0.67 ± 0.13 %ID/g
tissue uptake at 1 h ([2]; colon, with AMD3100, 50 µg per animal, coinjected (CXCR4 competition), coinjection of 50 µg AMD3100/animal, n=3, read-out: Biodistribution colon, competition with AMD3100): 0.47 ± 0.09 %ID/g
tissue uptake at 1 h ([2]; femur, tracer only, i.v., γ-counter, n=4-5 (68Ga: n=4), read-out: Biodistribution femur): 1.27 ± 0.32 %ID/g
tissue uptake at 1 h ([2]; femur, with AMD3100, 50 µg per animal, coinjected (CXCR4 competition), coinjection of 50 µg AMD3100/animal, n=3, read-out: Biodistribution femur, competition with AMD3100): 0.74 ± 0.11 %ID/g
tissue uptake at 1 h ([2]; heart, tracer only, i.v., γ-counter, n=4-5 (68Ga: n=4), read-out: Biodistribution heart): 1.51 ± 0.25 %ID/g
tissue uptake at 1 h ([2]; heart, with AMD3100, 50 µg per animal, coinjected (CXCR4 competition), coinjection of 50 µg AMD3100/animal, n=3, read-out: Biodistribution heart, competition with AMD3100): 1.37 ± 0.33 %ID/g
tissue uptake at 1 h ([2]; kidney, tracer only, i.v., γ-counter, n=4-5 (68Ga: n=4), read-out: Biodistribution kidney): 11.5 ± 3.58 %ID/g
tissue uptake at 1 h ([2]; kidney, with AMD3100, 50 µg per animal, coinjected (CXCR4 competition), coinjection of 50 µg AMD3100/animal, n=3, read-out: Biodistribution kidney, competition with AMD3100): 7.16 ± 1.62 %ID/g
tissue uptake at 1 h ([2]; liver, with AMD3100, 50 µg per animal, coinjected (CXCR4 competition), coinjection of 50 µg AMD3100/animal, n=3, read-out: Biodistribution liver, competition with AMD3100): 4.62 ± 0.56 %ID/g
tissue uptake at 1 h ([2]; lung, tracer only, i.v., γ-counter, n=4-5 (68Ga: n=4), read-out: Biodistribution lung): 3.15 ± 0.5 %ID/g
tissue uptake at 1 h ([2]; lung, with AMD3100, 50 µg per animal, coinjected (CXCR4 competition), coinjection of 50 µg AMD3100/animal, n=3, read-out: Biodistribution lung, competition with AMD3100): 3.12 ± 0.57 %ID/g
tissue uptake at 1 h ([2]; muscle, tracer only, i.v., γ-counter, n=4-5 (68Ga: n=4), read-out: Biodistribution muscle): 0.45 ± 0.05 %ID/g
tissue uptake at 1 h ([2]; muscle, with AMD3100, 50 µg per animal, coinjected (CXCR4 competition), coinjection of 50 µg AMD3100/animal, n=3, read-out: Biodistribution muscle, competition with AMD3100): 0.4 ± 0.11 %ID/g
tissue uptake at 1 h ([2]; pancreas, tracer only, i.v., γ-counter, n=4-5 (68Ga: n=4), read-out: Biodistribution pancreas): 0.68 ± 0.01 %ID/g
tissue uptake at 1 h ([2]; pancreas, with AMD3100, 50 µg per animal, coinjected (CXCR4 competition), coinjection of 50 µg AMD3100/animal, n=3, read-out: Biodistribution pancreas, competition with AMD3100): 0.69 ± 0.07 %ID/g
tissue uptake at 1 h ([2]; small intestine, tracer only, i.v., γ-counter, n=4-5 (68Ga: n=4), read-out: Biodistribution small intestine): 0.94 ± 0.13 %ID/g
tissue uptake at 1 h ([2]; small intestine, with AMD3100, 50 µg per animal, coinjected (CXCR4 competition), coinjection of 50 µg AMD3100/animal, n=3, read-out: Biodistribution small intestine, competition with AMD3100): 0.94 ± 0.31 %ID/g
tissue uptake at 1 h ([2]; spleen, tracer only, i.v., γ-counter, n=4-5 (68Ga: n=4), read-out: Biodistribution spleen): 2.01 ± 0.19 %ID/g
tissue uptake at 1 h ([2]; spleen, with AMD3100, 50 µg per animal, coinjected (CXCR4 competition), coinjection of 50 µg AMD3100/animal, n=3, read-out: Biodistribution spleen, competition with AMD3100): 2.38 ± 0.23 %ID/g
tissue uptake at 1 h ([2]; stomach, tracer only, i.v., γ-counter, n=4-5 (68Ga: n=4), read-out: Biodistribution stomach): 1.2 ± 0.1 %ID/g
tissue uptake at 1 h ([2]; stomach, with AMD3100, 50 µg per animal, coinjected (CXCR4 competition), coinjection of 50 µg AMD3100/animal, n=3, read-out: Biodistribution stomach, competition with AMD3100): 0.97 ± 0.32 %ID/g
tissue uptake at 1 h ([2]; tumor (Daudi xenograft), tracer only, i.v., γ-counter, n=4-5 (68Ga: n=4), read-out: Biodistribution tumor (Daudi xenograft)): 11.7 ± 1.31 %ID/g
tissue uptake at 1 h ([2]; tumor (Daudi xenograft), with AMD3100, 50 µg per animal, coinjected (CXCR4 competition), coinjection of 50 µg AMD3100/animal, n=3, read-out: Biodistribution tumor, competition with AMD3100): 2.52 ± 0.36 %ID/g
SMILES: C[C@@H](NC(=O)[C@@H](CCCNC(=N)N)NC(=O)CN1CCN(CC(=O)O)CCN(CC(=O)O)CCN(CC(=O)O)CC1)C(=O)Nc1ccc(C(=O)NCCC[C@@H]2C(=O)N[C@@H](CCCNC(=N)N)C(=O)N[C@@H](Cc3ccc4ccccc4c3)C(=O)NCC(=O)N[C@H](Cc3ccc(O)cc3)C(=O)N2C)cc1 [[^68Ga]DOTA-r-a-ABA-CPCR4, metal not drawn] (cyclo([2Nal]G[dY][dNMeOrn]([4Abz-dA-dR-DOTA])R))
